Values joined by “and” are separate entries in the source; they are usually repeats but may differ in a detail not shown here. Equal entries are not always repeated.
Test: xn = mol fraction of the nth substance listed

CC(C)CCO + CCCCO
298.15 K, 101 kPa
Settings	viscosity [mPa·s]
x2 = 0.1033	3.62
x2 = 0.204	3.472
x2 = 0.2977	3.343
x2 = 0.4026	3.211
x2 = 0.5005	3.093
x2 = 0.6046	2.972
x2 = 0.6996	2.851
x2 = 0.8015	2.746
x2 = 0.9172	2.615

CCOCCO + CCCCO
viscosity [mPa·s]
Settings	298.15 K	303.15 K	308.15 K	313.15 K
101 kPa, x1 = 0.0837	2.434	–	–	–
101 kPa, x1 = 0.1706	2.312	–	–	–
101 kPa, x1 = 0.2606	2.206	–	–	–
101 kPa, x1 = 0.3541	2.113	–	–	–
101 kPa, x1 = 0.4513	2.035	–	–	–
101 kPa, x1 = 0.5523	1.984	–	–	–
101 kPa, x1 = 0.6574	1.949	–	–	–
101 kPa, x1 = 0.7669	1.925	–	–	–
101 kPa, x1 = 0.881	1.902	–	–	–
101.33 kPa, x1 = 0.1017	2.284	1.999	1.771	1.565
101.33 kPa, x1 = 0.2007	2.13	1.887	1.671	1.49
101.33 kPa, x1 = 0.2996	2.015	1.787	1.589	1.42
101.33 kPa, x1 = 0.4028	1.958	1.731	1.546	1.378
101.33 kPa, x1 = 0.5032	1.891	1.677	1.499	1.34
101.33 kPa, x1 = 0.6036	1.86	1.656	1.48	1.331
101.33 kPa, x1 = 0.6986	1.838	1.634	1.462	1.31
101.33 kPa, x1 = 0.8029	1.829	1.63	1.458	1.314
101.33 kPa, x1 = 0.9	1.822	1.629	1.462	1.309

CNC(C)=O + CCCCO
303.15 K, 101 kPa
Settings	viscosity [mPa·s]
x1 = 0.0988	2.32
x1 = 0.2013	2.369
x1 = 0.2993	2.428
x1 = 0.3951	2.525
x1 = 0.4945	2.651
x1 = 0.5957	2.82
x1 = 0.6947	3.015
x1 = 0.8011	3.259
x1 = 0.8918	3.503

CC(C)CCO + CCCCOC(C)=O
308 K, 101 kPa
Settings	viscosity [mPa·s]
x2 = 0.0998	2.631
x2 = 0.2003	2.091
x2 = 0.3001	1.715
x2 = 0.3999	1.418
x2 = 0.4998	1.221
x2 = 0.5999	1.019
x2 = 0.6997	0.917
x2 = 0.8002	0.811
x2 = 0.9002	0.734

CCOCCO + CCCCOC(C)=O
298.15 K, 101 kPa
Settings	viscosity [mPa·s]
x1 = 0.0826	0.6948
x1 = 0.1249	0.7087
x1 = 0.1454	0.7178
x1 = 0.2182	0.7512
x1 = 0.3951	0.8537
x1 = 0.4691	0.9144
x1 = 0.502	0.9435
x1 = 0.5174	0.9569
x1 = 0.5604	0.9991
x1 = 0.6488	1.101
x1 = 0.7547	1.258
x1 = 0.7674	1.276
x1 = 0.7794	1.296
x1 = 0.9079	1.564
x1 = 0.9531	1.676
x1 = 0.9678	1.72

CNCCO + CCCCOCCO
viscosity, 101.3 kPa
Settings	293.15 K	298.15 K	303.15 K	308.15 K	313.15 K	318.15 K	323.15 K
x1 = 0.149	4.016 mPa·s	3.469 mPa·s	3.02 mPa·s	2.649 mPa·s	2.339 mPa·s	2.077 mPa·s	1.856 mPa·s
x1 = 0.403	5.748 mPa·s	4.862 mPa·s	4.158 mPa·s	3.584 mPa·s	3.112 mPa·s	2.725 mPa·s	2.401 mPa·s
x1 = 0.512	6.672 mPa·s and 6.73 mPa·s	5.591 mPa·s and 5.64 mPa·s	4.739 mPa·s and 4.78 mPa·s	4.054 mPa·s and 4.09 mPa·s	3.5 mPa·s and 3.53 mPa·s	3.045 mPa·s and 3.07 mPa·s	2.667 mPa·s and 2.69 mPa·s
x1 = 0.611	7.632 mPa·s	6.341 mPa·s	5.331 mPa·s	4.528 mPa·s	3.883 mPa·s	3.358 mPa·s	2.926 mPa·s
x1 = 0.702	8.54 mPa·s	7.04 mPa·s	5.87 mPa·s	4.95 mPa·s	4.22 mPa·s	3.63 mPa·s	3.15 mPa·s
x1 = 0.786	9.713 mPa·s	7.929 mPa·s	6.563 mPa·s	5.498 mPa·s	4.657 mPa·s	3.983 mPa·s	3.436 mPa·s
x1 = 0.934	12.07 mPa·s	9.674 mPa·s	7.893 mPa·s	6.525 mPa·s	5.461 mPa·s	4.621 mPa·s	3.948 mPa·s

CNC(C)=O + CCCCn1cc[n+](C)c1.F[B-](F)(F)F
101 kPa
Settings	viscosity [mPa·s]
293.15 K, x2 = 0.8495	82.55
308.15 K, x2 = 0.714	24.65

CCOCCO + CCCO
viscosity [mPa·s]
Settings	298.15 K	303.15 K	308.15 K	313.15 K
101 kPa, x1 = 0.069	1.942	–	–	–
101 kPa, x1 = 0.1429	1.891	–	–	–
101 kPa, x1 = 0.2223	1.852	–	–	–
101 kPa, x1 = 0.3078	1.826	–	–	–
101 kPa, x1 = 0.4001	1.811	–	–	–
101 kPa, x1 = 0.5001	1.806	–	–	–
101 kPa, x1 = 0.6088	1.81	–	–	–
101 kPa, x1 = 0.7273	1.823	–	–	–
101 kPa, x1 = 0.8572	1.839	–	–	–
101.33 kPa, x1 = 0.0969	1.815	1.607	1.431	1.272
101.33 kPa, x1 = 0.199	1.761	1.56	1.395	1.244
101.33 kPa, x1 = 0.2917	1.73	1.542	1.376	1.235
101.33 kPa, x1 = 0.3971	1.659	1.482	1.326	1.178
101.33 kPa, x1 = 0.4928	1.711	1.521	1.366	1.223
101.33 kPa, x1 = 0.5933	1.721	1.531	1.377	1.233
101.33 kPa, x1 = 0.6923	1.732	1.546	1.386	1.232
101.33 kPa, x1 = 0.7987	1.754	1.567	1.403	1.265
101.33 kPa, x1 = 0.8853	1.774	1.578	1.418	1.402

CNC(C)=O + CCCO
303.15 K, 101 kPa
Settings	viscosity [mPa·s]
x1 = 0.1069	1.816
x1 = 0.1939	1.891
x1 = 0.3142	2.033
x1 = 0.3918	2.142
x1 = 0.4791	2.289
x1 = 0.5976	2.537
x1 = 0.6966	2.785
x1 = 0.7922	3.066
x1 = 0.9015	3.443

CC(C)CCO + CCO
viscosity [mPa·s]
Settings	x1 = 0.0558	x1 = 0.1156	x1 = 0.1843	x1 = 0.2587	x1 = 0.3588	x1 = 0.4457	x1 = 0.5523	x1 = 0.6771	x1 = 0.8255	x2 = 0.5
298.15 K, 100 kPa	1.291	1.591	1.919	2.235	2.576	2.831	3.086	3.312	3.463	–
303.15 K, 100 kPa	1.175	1.471	1.806	2.029	2.353	2.549	2.756	2.917	2.945	–
308.15 K, 100 kPa	1.236	1.672	2.049	2.279	2.559	2.699	2.763	2.814	2.815	–
308.15 K, 101 kPa	–	–	–	–	–	–	–	–	–	1.747
313.15 K, 101 kPa	–	–	–	–	–	–	–	–	–	1.519
318.15 K, 101 kPa	–	–	–	–	–	–	–	–	–	1.372

CCC(=O)O.OCCNCCO + CCO
303.15 K, 101 kPa
Settings	viscosity [mPa·s]
x1 = 0.5084	116.5
x1 = 0.6965	177.5
x1 = 0.804	226.5

CCOCCO + CCO
298.15 K, 101 kPa
Settings	viscosity [mPa·s]
x1 = 0.0538	1.147
x1 = 0.1133	1.207
x1 = 0.1798	1.272
x1 = 0.2542	1.341
x1 = 0.3383	1.416
x1 = 0.4341	1.497
x1 = 0.544	1.581
x1 = 0.6716	1.669
x1 = 0.8215	1.761

CNC(C)=O + CCO
303.15 K, 101 kPa
Settings	viscosity [mPa·s]
x1 = 0.1049	1.108
x1 = 0.2021	1.237
x1 = 0.3699	1.52
x1 = 0.4024	1.584
x1 = 0.5109	1.833
x1 = 0.6023	2.084
x1 = 0.6979	2.402
x1 = 0.7994	2.792
x1 = 0.895	3.236

Oc1ccc(Cl)cc1 + CCO
Settings	viscosity [mPa·s]
298.15 K, 101 kPa, x1 = 0.5	1.454

Cc1cccc(Cl)c1 + CCOC(=O)c1ccccc1
viscosity [mPa·s], 101 kPa
Settings	303.15 K	313.15 K
x2 = 0.0789	0.775	0.672
x2 = 0.1831	0.822	0.711
x2 = 0.2348	0.851	0.734
x2 = 0.3353	0.913	0.782
x2 = 0.4121	0.973	0.827
x2 = 0.4871	1.043	0.881
x2 = 0.5629	1.122	0.938
x2 = 0.6364	1.212	1.006
x2 = 0.711	1.312	1.084
x2 = 0.7831	1.419	1.166
x2 = 0.8563	1.54	1.257
x2 = 0.9045	1.625	1.321
x2 = 0.9524	1.714	1.388

CC(C)CCO + CCOCCO
313.15 K, 101 kPa
Settings	viscosity [mPa·s]
x1 = 0.102	1.385
x1 = 0.2036	1.425
x1 = 0.8035	1.945

CNCCO + CCOCCO
viscosity [mPa·s], 101.3 kPa
Settings	293.15 K	298.15 K	303.15 K	308.15 K	313.15 K	318.15 K	323.15 K
x1 = 0.118	2.547	2.249	1.998	1.785	1.604	1.448	1.313
x1 = 0.34	3.887	3.356	2.92	2.56	2.26	2.006	1.791
x1 = 0.444	4.708	4.021	3.464	3.01	2.634	2.32	2.057
x1 = 0.545	5.72	4.828	4.116	3.541	3.071	2.684	2.362
x1 = 0.737	8.19	6.751	5.636	4.76	4.058	3.492	3.03
x1 = 0.915	11.49	9.252	7.565	6.267	5.255	4.453	3.812
